Assay results: patent US20260008862A1, “Bispecific Anti-BCMA x Anti-CD3 Antibodies and Uses Thereof” (Regeneron Pharmaceuticals, Inc., priority 2018, published 2026)
“Also recorded” adds a separate entry of the source.

Assays:
[1] = target: T1, cynomolgus CD3 (mfCD3 engineered Jurkat cell line) (Macaca fascicularis, UniProt Q95LI5+Q95LI8); assay: FACS binding to mfCD3 engineered Jurkat cells; conditions: median EC50, FACS binding
T1 construct: expressed in transfected cells; host or cells: Jurkat cells, CRISPR/Cas9-engineered (mfCD3 engineered Jurkat cell line)
Procedure: Flow cytometric analysis was utilized to determine binding of BCMA×CD3 bispecific antibodies to human and cynomolgus CD3 (Jurkat cells, mfCD3 engineered Jurkat cells, primary human CD8+ and cynomolgus CD8+ T cells). Briefly, 1e05 cells/well were incubated in the presence of FACS wash with block (PBS+1% filtered FBS+5% mouse serum) with a serial dilution of BCMA×CD3 and control antibodies for 30 minutes on ice. After incubation, the cells were washed twice with cold FACS wash (PBS+1% filtered FBS) and bound antibody was detected by incubating with Alexa647-conjugated anti-human secondary antibody on ice for an additional 30 minutes. Wells containing no antibody or secondary only were used as a control. For the detection of monkey and human T cells, a cocktail of human and cynomolgus cross-reactive antibodies to CD4, CD8 and CD16 was added to the anti-human secondary. After incubation, cells were washed, re-suspended in 200 μL cold PBS containing 1% filtered FBS and analyzed by flow cytometry on a BD FACS Canto II. Cells were gated by FSC-H by FSC-A to select singlet events, followed by side and forward scatters to select for live events. For monkey T cells, additional gating on CD8+/CD16− cells was performed.
EC50 values for FACS binding were calculated using 4-parameter non-linear regression analysis in Prism software. […]

[2] = test system: Jurkat/NFATLuc.3C7 cells + Daudi cells; assay: Jurkat/NFATLuc reporter bioassay with Daudi cells; format: cell-based; conditions: highest RLU / lowest RLU
Procedure: (§1) Activity of the anti-BCMA×anti-CD3 bispecific antibodies were assessed in a Jurkat/NFATLuc reporter bioassay utilizing several cell lines with varying levels of BCMA surface expression. The Jurkat cells were engineered to express an NFAT-luciferase reporter (Jurkat/NFATLuc.3C7), and 50,000 Jurkat reporter cells were combined with 50,000 BCMA positive (Daudi, MM1-S, NCI-H929, OPM-2, RPMI-8226, MOLP-8, or Raji) or BCMA negative (HEK293) cells in Thermo Nunclon delta 96 well white microwell plates (Thermo Scientific, Cat #136102) in 50 ul of assay media (RPMI media with 10% FBS and 1% P/S/G). Three-fold serial dilutions of the BCMA×CD3 bispecific antibodies (mAb25441 D or mAb25442D), or a bivalent anti-BCMA antibody (mAb21581) were immediately added in 50 μL of assay buffer. The plates were gently agitated and incubated in a 37° C., 5% CO2 incubator for 4-6 hours. NFAT-Luciferase activity was determined using Promega One-Glo (Cat #E6130) and a Perkin Elmer Envision plate reader. RLU were plotted in GraphPad Prism using a four-parameter logistic equation over a 12-point response curve to calculate EC50 values. […] The signal to noise (S:N) is determined by taking the ratio of the highest RLU on the curve to the lowest.

[3] = test system: established BCMA-expressing NCI-H929 tumors; assay: Established NCI-H929 + PBMC xenogenic tumor model, treatment from day 5 (Example 12); format: in vivo, mouse; conditions: for Average Tumor Size (mm3) ± SEM on Day 5: Day 5 (day of first dose)
Procedure: To determine the in vivo efficacy of anti-BCMA×anti-CD3 bispecific antibodies (Abs), a xenogenic tumor study was performed. Immunodeficient NOD.Cg-Prkdc^scidIl2rg^tm1Wji/SzJ (NSG) mice were subcutaneously implanted with a mixture of 10×10^6 BCMA-expressing NCI-H929 human multiple myeloma tumor cells and 0.5×10^6 human peripheral blood mononuclear cells (PBMC) isolated from a normal, healthy donor. The tumors were allowed to grow and establish for 5 days until they were approximately 70 mm^3 in size. […] The mice were administered these Abs twice per week for a total of seven doses, and tumor growth was assessed over 55 days. While BCMA^+ NCI-H929 tumors grew similarly in the vehicle- and CD3-binding control-treated mice, both BCMA×CD3 Abs that were tested shrank established tumors and prevented the growth of tumors in a dose-dependent manner in vivo.
Implantation and measurement of xenogenic tumors: NSG mice were subcutaneously implanted with a mixture of 10×10^6 BCMA-expressing NCI-H929 multiple myeloma cells and 0.5×10^6 PBMC derived from a normal, healthy donor. The tumors were allowed to grow and establish for 5 days until they were approximately 70 mm^3 in size. […] The mice were administered Abs twice per week for a total of seven doses. Tumor growth was measured with calipers twice per week for the duration of the experiment.
Calculation of xenogenic tumor growth and inhibition: In order to determine tumor volume by external caliper, the greatest longitudinal diameter (length in mm) and the greatest transverse diameter (width in mm) were determined. Tumor volumes based on caliper measurements were calculated by the formula: Volume (mm^3) […] (length×width^2)/2.

[4] = test system: Jurkat/NFATLuc.3C7 cells + Raji cells; assay: Jurkat/NFATLuc reporter bioassay with Raji cells; format: cell-based; conditions: highest RLU / lowest RLU
Procedure: as §1

[5] = test system: Jurkat/NFATLuc.3C7 cells + RPMI-8226 cells; assay: Jurkat/NFATLuc reporter bioassay with RPMI-8226 cells; format: cell-based; conditions: highest RLU / lowest RLU
Procedure: as §1

[6] = test system: Jurkat/NFATLuc.3C7 cells + HEK293 (BCMA negative) cells; assay: Jurkat/NFATLuc reporter bioassay with HEK293 cells; format: cell-based; conditions: highest RLU / lowest RLU
Procedure: as §1

T1 sequence (Q95LI5 22-198, change not shown): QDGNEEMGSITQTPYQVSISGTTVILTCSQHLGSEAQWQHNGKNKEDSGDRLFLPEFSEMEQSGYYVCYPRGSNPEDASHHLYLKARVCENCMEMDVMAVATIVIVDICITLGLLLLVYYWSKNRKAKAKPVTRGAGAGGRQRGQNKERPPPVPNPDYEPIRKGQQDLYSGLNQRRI
T1 sequence (Q95LI8 22-171, change not shown): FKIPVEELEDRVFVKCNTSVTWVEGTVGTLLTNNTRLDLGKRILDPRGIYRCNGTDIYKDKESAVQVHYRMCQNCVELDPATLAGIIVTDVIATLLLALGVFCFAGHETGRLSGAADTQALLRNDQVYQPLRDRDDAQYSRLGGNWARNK
T1 sequence (P09693 23-182 partner): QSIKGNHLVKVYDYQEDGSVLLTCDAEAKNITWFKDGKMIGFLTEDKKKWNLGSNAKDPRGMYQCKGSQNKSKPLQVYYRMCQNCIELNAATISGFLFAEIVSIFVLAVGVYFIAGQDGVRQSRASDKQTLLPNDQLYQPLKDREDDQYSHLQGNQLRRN
T1 sequence (P20963 22-164 partner): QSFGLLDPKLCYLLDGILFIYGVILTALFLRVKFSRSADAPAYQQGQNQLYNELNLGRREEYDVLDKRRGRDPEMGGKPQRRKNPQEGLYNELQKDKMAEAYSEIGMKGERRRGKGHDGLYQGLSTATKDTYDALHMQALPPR

Row | Substance | S:N [2] | Average Tumor Size (mm3) ± SEM on Day 5 ([3]; 0.04 mg/kg) [mm3] | Average Tumor Size (mm3) ± SEM on Day 8 ([3]; 0.04 mg/kg) [mm3] | Average Tumor Size (mm3) ± SEM on Day 12 ([3]; 0.04 mg/kg) [mm3] | Average Tumor Size (mm3) ± SEM on Day 15 ([3]; 0.04 mg/kg) [mm3] | Average Tumor Size (mm3) ± SEM on Day 19 ([3]; 0.04 mg/kg) [mm3] | Average Tumor Size (mm3) ± SEM on Day 22 ([3]; 0.04 mg/kg) [mm3] | Average Tumor Size (mm3) ± SEM on Day 5 ([3]; 0.4 mg/kg) [mm3] | Average Tumor Size (mm3) ± SEM on Day 8 ([3]; 0.4 mg/kg) [mm3] | Average Tumor Size (mm3) ± SEM on Day 12 ([3]; 0.4 mg/kg) [mm3] | Average Tumor Size (mm3) ± SEM on Day 15 ([3]; 0.4 mg/kg) [mm3] | Average Tumor Size (mm3) ± SEM on Day 19 ([3]; 0.4 mg/kg) [mm3] | Average Tumor Size (mm3) ± SEM on Day 22 ([3]; 0.4 mg/kg) [mm3] | Average Tumor Size (mm3) ± SEM on Day 27 ([3]; 0.4 mg/kg) [mm3] | Average Tumor Size (mm3) ± SEM on Day 30 ([3]; 0.4 mg/kg) [mm3] | Average Tumor Size (mm3) ± SEM on Day 35 ([3]; 0.4 mg/kg) [mm3] | Average Tumor Size (mm3) ± SEM on Day 40 ([3]; 0.4 mg/kg) [mm3] | Average Tumor Size (mm3) ± SEM on Day 55 ([3]; 0.4 mg/kg) [mm3] | Average Tumor Size (mm3) ± SEM on Day 5 ([3]; 4 mg/kg) [mm3] | Average Tumor Size (mm3) ± SEM on Day 8 ([3]; 4 mg/kg) [mm3] | further results
1 | REGN5458: anti-BCMA×anti-CD3 bispecific antibody: BCMA HCVR of mAb21581 (SEQ 66), CD3 HCVR of mAb7221G (SEQ 90), common LCVR SEQ 82 | 43 | 58.1 ± 5.6 | 130.3 ± 16.7 | 525.9 ± 71.5 | 1031.2 ± 164.3 | 2467.5 ± 370.0 | 3745.7 ± 541.2 | 69.3 ± 7.3 | 120.3 ± 16.3 | 262.7 ± 61.6 | 476.2 ± 133.5 | 1347.5 ± 334.7 | 2068.5 ± 465.0 | 3463.9 ± 1025.0 | 2144.2 ± 2144.2 | 0 ± 0 | 0 ± 0 | 0 ± 0 | 71.9 ± 10.3 | 64.7 ± 16.4 | EC50 [1]: 15.1 nM; Average Tumor Size (mm3) ± SEM on Day 27 ([3]; 0.04 mg/kg): 1589.1 ± 0 mm3; Average Tumor Size (mm3) ± SEM on Day 30 ([3]; 0.04 mg/kg): 2886.5 ± 0 mm3; Average Tumor Size (mm3) ± SEM on Day 12 ([3]; 4 mg/kg): 19.5 ± 10.9 mm3; Average Tumor Size (mm3) ± SEM on Day 15 ([3]; 4 mg/kg): 25.6 ± 19.2 mm3; Average Tumor Size (mm3) ± SEM on Day 19 ([3]; 4 mg/kg): 40.6 ± 32.8 mm3; Average Tumor Size (mm3) ± SEM on Day 22 ([3]; 4 mg/kg): 78.3 ± 60.8 mm3; Average Tumor Size (mm3) ± SEM on Day 27 ([3]; 4 mg/kg): 252.3 ± 185.1 mm3; Average Tumor Size (mm3) ± SEM on Day 30 ([3]; 4 mg/kg): 411.3 ± 307.2 mm3; Average Tumor Size (mm3) ± SEM on Day 35 ([3]; 4 mg/kg): 633.5 ± 473.5 mm3; Average Tumor Size (mm3) ± SEM on Day 40 ([3]; 4 mg/kg): 369.5 ± 369.5 mm3; Average Tumor Size (mm3) ± SEM on Day 55 ([3]; 4 mg/kg): 0 ± 0 mm3; S:N [4]: 123; S:N [5]: 55; S:N [6]: 1
2 | REGN5459: anti-BCMA×anti-CD3 bispecific antibody: BCMA HCVR of mAb21581 (SEQ 66), CD3 HCVR of mAb7221G20 (SEQ 98), common LCVR SEQ 82 | 25 | 74.9 ± 6.4 | 152.3 ± 20.0 | 462.5 ± 57.7 | 1094.2 ± 78.9 | 2412.5 ± 184.6 | 3285.9 ± 227.3 | 69.5 ± 4.1 | 171.9 ± 23.2 | 233.8 ± 63.5 | 327.2 ± 135.6 | 606.2 ± 288.8 | 815.4 ± 387.1 | 1849.9 ± 903.1 | 661.8 ± 490.1 | 996.8 ± 771.0 | 375.6 ± 375.6 | 0 ± 0 | 61.8 ± 5.2 | 45.8 ± 9.8 | Jurkat-mfCD3 EC50 [M] [1]: did not bind; also recorded: No Binding; Average Tumor Size (mm3) ± SEM on Day 15 ([3]; 4 mg/kg): 0 ± 0 mm3; Average Tumor Size (mm3) ± SEM on Day 19 ([3]; 4 mg/kg): 0 ± 0 mm3; Average Tumor Size (mm3) ± SEM on Day 22 ([3]; 4 mg/kg): 0 ± 0 mm3; Average Tumor Size (mm3) ± SEM on Day 27 ([3]; 4 mg/kg): 0 ± 0 mm3; Average Tumor Size (mm3) ± SEM on Day 30 ([3]; 4 mg/kg): 0 ± 0 mm3; Average Tumor Size (mm3) ± SEM on Day 35 ([3]; 4 mg/kg): 0 ± 0 mm3; Average Tumor Size (mm3) ± SEM on Day 40 ([3]; 4 mg/kg): 0 ± 0 mm3; Average Tumor Size (mm3) ± SEM on Day 55 ([3]; 4 mg/kg): 0 ± 0 mm3; S:N [4]: 78; S:N [5]: 42; S:N [6]: 1
